Activity calls are given as the source filed them. No cut-off for these calls is given here.
Tests used:
[1] = molecular target: T1, Peroxisome proliferator-activated receptor alpha (Homo sapiens) (UniProt Q07869); test: Activation of human PPAR-alpha LBD expressed in HEK293T cells assessed as induction of receptor activation at 10 uM incubated for 12 to 14 hrs by luciferase reporter gene assay; format: cell-based; details: HEK-293T
T1 sequence (whole entry): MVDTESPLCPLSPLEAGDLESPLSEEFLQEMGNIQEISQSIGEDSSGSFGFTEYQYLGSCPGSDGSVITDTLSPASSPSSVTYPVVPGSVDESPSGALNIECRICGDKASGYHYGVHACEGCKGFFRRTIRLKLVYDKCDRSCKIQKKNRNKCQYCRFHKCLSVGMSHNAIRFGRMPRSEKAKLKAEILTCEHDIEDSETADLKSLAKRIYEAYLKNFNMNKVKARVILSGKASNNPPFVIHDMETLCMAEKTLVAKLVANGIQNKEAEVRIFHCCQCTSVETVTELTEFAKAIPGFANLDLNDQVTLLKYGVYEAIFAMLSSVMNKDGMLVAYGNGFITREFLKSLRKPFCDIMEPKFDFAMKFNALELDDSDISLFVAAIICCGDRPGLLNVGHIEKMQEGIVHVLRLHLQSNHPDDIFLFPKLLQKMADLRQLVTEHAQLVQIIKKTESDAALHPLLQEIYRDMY

[2] = molecular target: T2, Oxysterols receptor LXR-alpha (Homo sapiens) (UniProt Q13133); test: Activation of human LXR-alpha LBD expressed in HEK293T cells assessed as induction of receptor activation at 10 uM incubated for 12 to 14 hrs by luciferase reporter gene assay; format: cell-based; details: HEK-293T
T2 sequence (whole entry): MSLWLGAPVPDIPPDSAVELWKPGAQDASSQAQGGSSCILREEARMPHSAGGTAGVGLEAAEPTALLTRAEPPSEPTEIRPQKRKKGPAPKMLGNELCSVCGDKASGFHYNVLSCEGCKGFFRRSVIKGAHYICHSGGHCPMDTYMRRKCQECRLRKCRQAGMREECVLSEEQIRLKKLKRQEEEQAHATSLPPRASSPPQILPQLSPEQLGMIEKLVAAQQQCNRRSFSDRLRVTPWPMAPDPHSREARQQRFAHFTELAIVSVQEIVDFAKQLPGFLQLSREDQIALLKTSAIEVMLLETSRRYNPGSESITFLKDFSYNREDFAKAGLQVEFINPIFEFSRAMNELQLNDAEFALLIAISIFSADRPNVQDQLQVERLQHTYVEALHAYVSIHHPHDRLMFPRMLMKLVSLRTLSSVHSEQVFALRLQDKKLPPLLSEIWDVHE

Activity [1]: inactive
Activity [2]: inactive
SMILES: CC(C)c1onc(-c2c(Cl)cccc2Cl)c1COc1ccc(CNc2ccc(CC(=O)O)cc2)c(Cl)c1

Source: ChEMBL document CHEMBL4627415, “Design and Structural Optimization of Dual FXR/PPARδ Activators” (J Med Chem, 2020)
